Entries after “also recorded” stand apart in the source; their conditions may differ. Read-outs that look alike come from different tables or passages of the source. One block for each compound: values may come before it.
What was measured:
22Rv1 cells [1] = assay: cells; assay type: cell-based, human; conditions: for IC50: Homo sapiens, 22Rv1; for Cu(II) added to the growth medium required for antiproliferative activity: checkerboard pilot studies in 22Rv1 cells
Protocol: (§1) Antiproliferation assay: To determine the amount of Cu(II) required for cell studies a checkerboard assay was performed by varying the prodrug or drug concentration and Cu(II) concentration. 22RV1, LNCaP, PC3, MCF-7, and PWR-1E (5,000 cells/well) were seeded in 96-well plates with regular media (22Rv1, LNCaP, and PC-3 in RPMI with 10% FBS; MCF-7 in DMEM with 10% FBS; PWR-1E in Keratinocyte-SFM) and let adhere for 24 h. The following day, the media was replaced with serum free media and cells were treated as indicated for an additional 24 h or 72 h. Cell proliferation was measured using a fluorometric resazurin reduction method. 20 μL of 700 μM Resazurin (Sigma R7017) was added in each well and incubated at 37° C. for 2 h. Fluorescence at 580 nm was measured by exciting at 555 nm with a plate reader. Each experiment was performed in triplicate, and the experiments were repeated three times. Viability vs drug concentration plot from a representative experiment are shown with standard deviation from the experiment as error bar. The error bar in IC50 values represents standard deviation from three different experiments.

LNCaP cells = assay: cells; assay type: cell-based, human; conditions: Homo sapiens, LNCaP, LNCaP
Protocol: as §1

MCF-7 cells = assay: cells; assay type: cell-based, human; conditions: Homo sapiens, MCF7, MCF-7
Protocol: as §1

PC-3 cells = assay: cells; assay type: cell-based, human; conditions: Homo sapiens, PC-3
Protocol: as §1

PWR-1E cells [2] = assay: cells; assay type: cell-based, human; conditions: PWR-1E, PWR-1E
Protocol: as §1

GGT [3] = target: T1, GGT (Homo sapiens, UniProt P19440); assay: Competition experiments vs. γE-pNA for GGT; assay type: biochemical; conditions: vs E-pNA; PBS, pH 7.4, 1 mM GlyGly
Protocol: Competition experiments vs. γE-pNA for GGT: To perform the inhibition study, a serial dilution of γE-pNA was performed ranging from 1 mM to 3 μM in PBS with 1 mM Gly-Gly (dilution factor=0.5; pH 7.4; 10% DMSO; 100 μL) using a clear, flat bottom 96 well plate. GGT binding molecules, as indicated, were added to separate sets of triplicate wells to reach a final concentration of 10 and 100 μM. Before the addition of enzyme, the plate was cooled to 4° C. for 15 min. To initiate the assay, 10 μL of 50 U/L GGT was added to each well and an initial absorbance scan was performed. Subsequent scans were performed every 10 min for ˜2 h. In between each scan, the plates were stored at 37° C. in a humidified incubator to reduce solvent evaporation. The experiment was repeated in triplicate.
To probe the reactivity of Glu-DTC in comparison to the enzyme's natural substrate GSH, competition experiments were conducted against the colorimetric substrate L-glutamic acid γ-(p-nitroanilide) [E-pNA]. The colorimetric assay involves monitoring p-nitroaniline release by absorbance at 405 nm upon reaction of the probe substrate E-pNA with GGT in the presence of an inhibiting substrate, either Glu-DTC (FIG. 15A) or GSH (FIG. 15C).

GGT [4] = target: T1, GGT; assay: Copper-calcein competition assay with GGT exposure; assay type: biochemical; conditions: 20 U/L GGT, 1 mM Gly-Gly, 12.5 μM, 37° C.
Protocol: Plots at different timepoint of GGT exposure in accordance with one embodiment of the present disclosure. […] Solutions contained 1 μM CuSO4, 1 μM calcein, 20 U/L of GGT enzyme, and 12.5 μM of either Glu-DTC (grey) or DTC (black) in PBS buffer pH 7.4 with 1 mM Gly-Gly; 37° C.
Calcein assay: In a 96-well plate 12.5 μM prodrug or DTC chelator was dissolved in PBS (pH=7.4) from a 20 mM stock solution in DMSO. To each well Calcein (Cu) was added to reach a final concentration of 1 μM. The fluorescence of calcein was measured using a plate reader with λex=485 nm and λem=535 nm. After measuring the initial fluorescence, Gly-Gly and GGT were added in each well to make up to a final concentration of 1 mM and 20 U/L respectively. The plate was scanned at various time points to observe prodrug turnover via the development of a fluorescent signal caused by Cu removal from Calcein. The fluorescence emission was plotted as percentage with fluorescence of 1 μM Calcein in PBS as 100% and 1 μM (Cu)Calcein as 0%. The experiment was repeated in triplicate and standard deviations are represented as error bars.

GGT [5] = target: T1, GGT; assay: GGT enzyme cleavage assay (LC/MS); assay type: biochemical; conditions: 100 μM, 100 U/L GGT, 15 min, then 500 μM CuSO4
Protocol: GGT Enzyme cleavage assay: In order to detect DTC liberated from prodrug by reactivity with GGT, 100 μM Glu-DTC was exposed to 100 U/L GGT in the presence of 1 mM Gly-Gly (PBS; pH 7.4; 37° C.). After 15 min, 500 μM CuSO4 was added to the vial, mixed well, then analyzed by LC/MS using an H2O: acetonitrile gradient for 25 min starting with 95% H2O:acetonitrile to 5% H2O:acetonitrile. A peak eluting at 12 min was observed corresponding to Glu-DTC as detected by MS, while a second peak eluting at 22 min corresponded to Cu(DTC)2 as detected by MS.

22Rv1 cells [6] = assay: Glu-DTC cleavage in cell culture, 22Rv1; assay type: cell-based, human; conditions: 100 μM
Protocol: (§2) Glu-DTC cleavage in cell culture: 22Rv1 and PWR-1E cell lines were plated into a 24 well plate (2×10^5 cells/well) with their respective growth media and allowed to adhere overnight. The following day, the growth media was removed, and each cell line was washed with PBS. 2 mL of 100 μM Glu-DTC in serum free media along with 1 mM Gly-Gly was added to the cells. One batch of 22Rv1 were treated with 2 mM Acivicin, a GGT inhibitor, along with Glu-DTC and Gly-Gly. 100 μL aliquots were taken at various time points over 72 h. Each aliquot was analyzed via HPLC to generate chromatographs of the progress of Glu-DTC digestion. Caffeine was added as reference and the ratio of Glu-DTC peak area with respect to caffeine was plotted as percentage considering initial Glu-DTC level as 100%.

PWR-1E cells [7] = assay: Glu-DTC cleavage in cell culture, PWR-1E; assay type: cell-based, human; conditions: GGT(−), 100 μM, 24 h
Protocol: as §2

[8] = tested on: 22Rv1, LNCaP, PC3, PWR-1E and MCF-7 cells; assay: Antiproliferation assay across all cell lines; assay type: cell-based; conditions: Homo sapiens, 72 h
Protocol: as §1

mCRPC patients = conditions: phase 1, mCRPC patients; cited from earlier work
[9] = 24 h, 1 μM CuSO4, read-out: IC50 with 1 μM CuSO4
[10] = 72 h, 1 μM CuSO4, read-out: IC50 with 1 μM CuSO4
[11] = 24 h, 24 h, 1 μM CuSO4, read-out: IC50 with 1 μM CuSO4
[12] = 72 h, 72 h, 1 μM CuSO4, read-out: IC50 with 1 μM CuSO4
[13] = Homo sapiens, 24 h, 24 h, 1 μM CuSO4, read-out: IC50 with 1 μM CuSO4
[14] = Homo sapiens, 72 h, 72 h, 1 μM CuSO4, read-out: IC50 with 1 μM CuSO4
[15] = Table 1, time and Cu not given, read-out: IC50 values

T1 sequence (P19440 whole entry, species assumed): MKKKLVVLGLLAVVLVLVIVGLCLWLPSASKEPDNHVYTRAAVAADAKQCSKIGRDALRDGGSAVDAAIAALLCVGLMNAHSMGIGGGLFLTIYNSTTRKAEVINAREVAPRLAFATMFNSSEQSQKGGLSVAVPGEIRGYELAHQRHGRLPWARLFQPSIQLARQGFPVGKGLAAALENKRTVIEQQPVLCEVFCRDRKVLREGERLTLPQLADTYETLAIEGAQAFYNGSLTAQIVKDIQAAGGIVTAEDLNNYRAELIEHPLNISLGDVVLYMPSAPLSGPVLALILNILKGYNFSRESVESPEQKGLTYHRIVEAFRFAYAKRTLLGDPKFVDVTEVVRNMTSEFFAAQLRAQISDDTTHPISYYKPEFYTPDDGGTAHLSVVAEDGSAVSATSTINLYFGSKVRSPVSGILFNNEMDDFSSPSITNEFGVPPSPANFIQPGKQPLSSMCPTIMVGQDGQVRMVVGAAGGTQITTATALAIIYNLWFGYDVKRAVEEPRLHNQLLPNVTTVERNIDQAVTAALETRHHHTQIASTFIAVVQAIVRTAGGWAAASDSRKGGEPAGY

IC50 (22Rv1 cells [1]; 24 h, 1 μM CuSO4, read-out: IC50): 800 nM | IC50 (22Rv1 cells [1]; [9]): 760 ± 90 nM | IC50 (22Rv1 cells [1]; [10]): 290 ± 110 nM | IC50 (22Rv1 cells [1]; 72 h continuous exposure, 1 μM CuSO4, read-out: IC50): 300 nM | IC50 (LNCaP cells; 24 h, 24 h, 1 μM CuSO4, read-out: IC50): 800 nM | IC50 (LNCaP cells; [11]): 620 ± 40 nM | IC50 (LNCaP cells; 24 h, initial experiments, after 24 h, 1 μM supplemental Cu(II), read-out: IC50): 760 nM | IC50 (LNCaP cells; [12]): 500 ± 90 nM | IC50 (MCF-7 cells; [9]): 1700 ± 100 nM | IC50 (MCF-7 cells; [10]): 480 ± 40 nM | IC50 (PC-3 cells; initial experiments, PC3, 24 h, above maximum tested 10 μM, obtained by extrapolation of the curve (FIG. 10A), read-out: IC50): ~12000 nM | IC50 (PC-3 cells; [9]): 5500 ± 100 nM | IC50 (PC-3 cells; [10]): 1320 ± 250 nM | IC50 (PWR-1E cells [2]; [13]): > 15000 nM | IC50 (PWR-1E cells [2]; [14]): 1500 nM | IC50 (PWR-1E cells [2]; [9]): 16800 ± 4400 nM | IC50 (PWR-1E cells [2]; [10]): 1550 ± 20 nM | Ki (GGT [3]): 23000 ± 5000 nM | stability time with GGT inhibitor Acivicin (22Rv1 cells [6]; 22Rv1, co-exposure with Acivicin): at least 24 h | level of intact Glu-DTC in supernatant with Acivicin (22Rv1 cells [6]; 22Rv1 treated with GGT-inhibitor Acivicin, 24 h): unchanged | level of intact Glu-DTC in supernatant (PWR-1E cells [7]): unchanged
Structure (SMILES): CCN(CC)C(=S)SCc1ccc(NC(=O)CC[C@H](N)C(=O)O)cc1 [Glu-DTC]
Cu(II) added to the growth medium required for antiproliferative activity (22Rv1 cells [1]): 300 nM | toxicity (PWR-1E cells [2]; initial experiments, within the tested concentration of 10 μM): did not show much toxicity | calcein fluorescence after exposure to GGT enzyme (GGT [4]): recovery of calcein fluorescence over time | prodrug cleavage and Cu(DTC)2 formation by LC/MS (GGT [5]): decrease in Glu-DTC peak and formation of Cu(DTC)2 | level of intact Glu-DTC in supernatant (22Rv1 cells [6]; 22Rv1, 24 h, 1 mM GlyGly): significant loss of detectable Glu-DTC; also recorded: depletion was observed

IC50 (22Rv1 cells [1]; [9]): 72 ± 10 nM | IC50 (22Rv1 cells [1]; [10]): 92 ± 5 nM | IC50 (22Rv1 cells [1]; [15]): 65 nM | IC50 (LNCaP cells; [11]): 130 ± 20 nM | IC50 (LNCaP cells; [12]): 140 ± 10 nM | IC50 (LNCaP cells; [15]): 120 nM | IC50 (MCF-7 cells; [9]): 180 ± 10 nM | IC50 (MCF-7 cells; [10]): 47 ± 2 nM | IC50 (MCF-7 cells; [15]): 130 nM | IC50 (PC-3 cells; [9]): 70 ± 10 nM | IC50 (PC-3 cells; [10]): 57 ± 10 nM | IC50 (PC-3 cells; [15]): 66 nM | IC50 (PWR-1E cells [2]; [13]): 80 ± 20 nM | IC50 (PWR-1E cells [2]; [14]): 70 ± 10 nM | IC50 (PWR-1E cells [2]; Homo sapiens, Table 1, time and Cu not given, read-out: IC50 values): 72 nM | IC50 ([8]; 1 μM CuSO4, read-out: IC50 range across all cell lines): 40 to 150 nM | IC50 ([8]; DSF is a dimer of DTC, read-out: IC50 per monomer): 80 to 300 nM
Structure (SMILES): CCN(CC)C(=S)SSC(=S)N(CC)CC [DSF, disulfiram, reference compound]
Cu(II) added to the growth medium required for antiproliferative activity (22Rv1 cells [1]): 300 nM | patients who developed grade 3 adverse events (mCRPC patients): 6 of the 12 | toxicity and efficacy outcome (mCRPC patients): significant toxicity without improvement in efficacy
